Measured values published in patent publication US20230167103A1 (Bayer Aktiengesellschaft, priority 2020, published 2023).

Molecular target: T1, human DGKζ (Homo sapiens, UniProt Q13574)
T1 construct: made in house; host or cells: Sf9 insect cells, baculovirus
Experiment: Human DGKζ kinase activity inhibition assay (ADP-Glo)
Format: biochemical
Conditions: example compounds; recombinant full-length human DGKζ, 1,2-dioleoyl-sn-glycerol 7 μM, ATP 55 μM, 20 min at 22° C.; read-out: IC50 values of examples in in vitro human DGKζ kinase activity inhibition assays
Experimental: Human diacylglycerol kinase zeta (DGKζ) inhibitory activity of compounds of the present invention was quantified employing the human DGKζ kinase activity assay as described in the following paragraphs. In essence, the enzyme activity was measured by quantification of the adenosine-di-phosphate (ADP) generated as a co-product of the enzyme reaction via the “ADP-Glo™ Kinase Assay” kit from the company Promega. This detection system works as follows: In a first step the adenosine-tri-phosphate (ATP) not consumed in the kinase reaction is quantitatively converted to cyclic adenosine-mono-phosphate (cAMP) employing an adenylate cyclase (“ADP-Glo-reagent”), then the adenylate cyclase is stopped and the ADP generated in the kinase reaction is converted to ATP, which subsequently generates in a luciferase-based reaction a glow-luminescence signal (“Kinase Detection Reagent”).
C-terminally FLAG-tagged, recombinant full-length human DGKζ (inhouse expressed in baculovirus infected insect cells, purified using anti-Flag pulldown and size exclusion chromatography) was used as enzyme. As an alternative, commercially available enzyme by Carnabio can be used. As substrate for the kinase, 1,2-dioleoyl-sn-glycerol, reconstituted in octyl-β-D-glucopyranoside micelles, was used. […] Subsequently, 22.55 volumes of a 510 mM solution of octyl-β-D-glucopyranoside (Sigma-Aldrich, Cat. #O8001-10G) in 50 mM MOPS buffer (pH 7.4) were added, and the mixture was sonicated in an ultrasonic bath for 20 s. Then 35 volumes of 50 mM MOPS buffer (pH 7.4) were added to yield a solution of 0.28 mM 1,2 dioleoyl-sn-glycerol and 200 mM octyl-β-D-glucopyranoside, which was aliquoted, flash-frozen in liquid nitrogen, and stored at −20° C. until use.
For the assay 50 nl of a 100-fold concentrated solution of the test compound in dimethyl sulfoxide (DMSO, Sigma) was pipetted into either a white 1536-well or a white low-volume 384-well microtiter plate (both Greiner Bio-One, Frickenhausen, Germany). […] The concentration of DGKζ was adjusted depending of the activity of the enzyme lot and was chosen appropriate to have the assay in the linear range, a typical concentration is about 0.1 nM. The reaction was stopped by the addition of 2.5 μL of “ADP-Glo-reagent” (1 to 1.5 diluted with water) and the resulting mixture was incubated at 22° C. for 1 h to convert the ATP not consumed in the kinase reaction completely to cAMP. Subsequently 2.5 μl of the “kinase detection reagent” (1.2 fold more concentrated than recommended by the producer) were added, the resulting mixture was incubated at 22° C. for 1 h and then the luminescence measured with a suitable measurement instrument (e.g. Viewlux™ from Perkin-Elmer). The amount of emitted light was taken as a measure for the amount of ADP generated and thereby for the activity of the DGKζ.
The data were normalised (enzyme reaction without inhibitor=0% inhibition, all other assay components but no enzyme=100% inhibition).

T1 sequence (Q13574 with tags, fused parts or gaps): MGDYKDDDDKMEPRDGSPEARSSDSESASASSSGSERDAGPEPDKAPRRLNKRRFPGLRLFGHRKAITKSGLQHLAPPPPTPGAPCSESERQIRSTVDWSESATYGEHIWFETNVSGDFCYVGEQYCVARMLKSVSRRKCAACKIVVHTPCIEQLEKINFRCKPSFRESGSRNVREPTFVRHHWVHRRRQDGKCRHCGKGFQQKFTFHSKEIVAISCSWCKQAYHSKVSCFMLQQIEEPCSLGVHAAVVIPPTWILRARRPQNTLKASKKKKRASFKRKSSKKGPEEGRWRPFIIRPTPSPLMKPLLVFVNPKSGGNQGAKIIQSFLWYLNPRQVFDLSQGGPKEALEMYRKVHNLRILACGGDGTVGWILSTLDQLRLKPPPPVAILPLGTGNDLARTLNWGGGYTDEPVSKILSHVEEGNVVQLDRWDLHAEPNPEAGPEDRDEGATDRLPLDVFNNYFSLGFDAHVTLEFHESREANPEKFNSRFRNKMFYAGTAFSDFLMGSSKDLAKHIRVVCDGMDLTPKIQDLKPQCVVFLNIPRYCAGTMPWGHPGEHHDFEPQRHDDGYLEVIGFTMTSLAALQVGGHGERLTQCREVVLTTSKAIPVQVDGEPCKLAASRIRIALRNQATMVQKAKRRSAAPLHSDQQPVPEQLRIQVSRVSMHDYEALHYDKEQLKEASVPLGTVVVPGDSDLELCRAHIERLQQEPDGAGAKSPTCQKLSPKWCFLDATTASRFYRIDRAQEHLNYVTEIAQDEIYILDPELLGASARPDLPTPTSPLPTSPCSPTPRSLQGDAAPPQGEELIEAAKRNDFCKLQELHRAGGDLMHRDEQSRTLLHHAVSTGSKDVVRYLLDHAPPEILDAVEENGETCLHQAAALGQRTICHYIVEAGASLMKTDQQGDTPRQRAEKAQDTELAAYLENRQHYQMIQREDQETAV

IC50 | Compound
0.109 µM | CC(C(N)=O)N(c1ccc(F)cc1)c1nc(N)c(C(=O)c2cc(-c3ccccc3F)no2)s1 (racemic) [Example 67, rac-2-(N-[4-amino-5-[3-(2-fluorophenyl)isoxazole-5-carbonyl]thiazol-2-yl]-4-fluoro-anilino)propanamide]
0.043 µM | CC(C(N)=O)N(c1ccc(F)cc1)c1nc(N)c(C(=O)c2cc(C(=O)NC3CCCC3(C)C)no2)s1 (racemic) [Example 37, 5-[4-amino-2-(N-(2-amino-1-methyl-2-oxo-ethyl)-4-fluoro-anilino)thiazole-5-carbonyl]-N-(2,2-dimethylcyclopentyl)isoxazole-3-carboxamide]
0.412 µM | Cc1noc(C(=O)c2sc(N(c3ccc(F)cc3)C(C)C(N)=O)nc2N)n1 (racemic) [Example 52, rac-2-(N-[4-amino-5-(3-methyl-1,2,4-oxadiazole-5-carbonyl)thiazol-2-yl]-4-fluoro-anilino)propanamide]
0.017 µM | CC(C(N)=O)N(c1ccc(F)cc1)c1nc(N)c(C(=O)c2nc(-c3cccc(F)c3)no2)s1 (racemic) [Example 55, rac-2-(N-[4-amino-5-[3-(3-fluorophenyl)-1,2,4-oxadiazole-5-carbonyl]thiazol-2-yl]-4-fluoro-anilino)propanamide]
0.409 µM | CC(C(N)=O)N(c1ccc(F)cc1)c1nc(N)c(C(=O)c2cc(-c3ccccc3)ns2)s1 (racemic) [Example 50, rac-2-(N-[4-amino-5-(3-phenylisothiazole-5-carbonyl)thiazol-2-yl]-4-fluoro-anilino)propanamide]
0.194 µM | CC(C(N)=O)N(c1ccc(F)cc1)c1nc(N)c(C(=O)c2cc(CNC3CCCC3)no2)s1 (racemic) [Example 62, rac-2-(N-[4-amino-5-[3-[(cyclopentylamino)methyl]isoxazole-5-carbonyl]thiazol-2-yl]-4-fluoro-anilino)propanamide]
0.407 µM | CC(C(N)=O)N(c1ccc(F)cc1)c1nc(N)c(C(=O)c2cc(-c3cccnc3)no2)s1 (racemic) [Example 7, rac-2-(N-[4-amino-5-[3-(3-pyridyl)isoxazole-5-carbonyl]thiazol-2-yl]-4-fluoro-anilino)propanamide]
0.12 µM | CC(C(N)=O)N(c1ccc(F)cc1)c1nc(N)c(C(=O)c2cc(C(=O)NC3(C4CC4)CC3)no2)s1 (racemic) [Example 24, rac-5-[4-amino-2-(N-(2-amino-1-methyl-2-oxo-ethyl)-4-fluoro-anilino)thiazole-5-carbonyl]-N-(1-cyclopropylcyclopropyl)isoxazole-3-carboxamide]
0.093 µM | CC(C(N)=O)N(c1ccc(F)cc1)c1nc(N)c(C(=O)c2cc(C(=O)NC3CC(F)(F)C3)no2)s1 (racemic) [Example 32, rac-5-[4-amino-2-(N-(2-amino-1-methyl-2-oxo-ethyl)-4-fluoro-anilino)thiazole-5-carbonyl]-N-(3,3-difluorocyclobutyl)isoxazole-3-carboxamide]
0.566 µM | CC(C(N)=O)N(c1ccc(F)cc1)c1nc(N)c(C(=O)c2cc(C(=O)NCC#N)no2)s1 (racemic) [Example 35, rac-5-[4-amino-2-(N-(2-amino-1-methyl-2-oxo-ethyl)-4-fluoro-anilino)thiazole-5-carbonyl]-N-(cyanomethyl)isoxazole-3-carboxamide]
0.026 µM | CC(C(N)=O)N(c1ccc(F)cc1)c1nc(N)c(C(=O)c2cc(CN3CCC(F)(F)CC3)no2)s1 (racemic) [Example 75, rac-2-(N-[4-amino-5-[3-[(4,4-difluoro-1-piperidyl)methyl]isoxazole-5-carbonyl]thiazol-2-yl]-4-fluoro-anilino)propanamide]

Same assay, conditions: intermediates (comparative, lacking the R2 alkyl-carboxamide group); same assay conditions; read-out: IC50 values of intermediates in in vitro human DGKζ kinase activity inhibition assays

IC50 | Compound
> 20 µM | rac-5-[4-amino-2-(N-(2-amino-1-methyl-2-oxo-ethyl)-4-fluoro-anilino)thiazole-5-carbonyl]-N-(1-cyclopropylcyclopropyl)isoxazole-3-carboxamide [Example 24]
